# Results as given in article PMC7347136 (PLoS ONE, 2020).
# “And” between values parts separate entries of the source, which are not always exact repeats. Identical values can stand only once. Like-named read-outs stand apart in the source and are kept apart here.
# What was measured:
# [1] = molecular target: T1, CLK2 (Homo sapiens, UniProt P49760); experiment: Carna IC50 determination; type: biochemical; conditions: around Km [ATP]
# T1 construct: purchased Carna Biosciences
# Protocol: (§1) IC50 values were determined from a 10-point concentration curve using ATP concentrations approximating Km values. […] The percentage inhibition of each test solution was calculated, which allowed the IC50 value to be determined from concentration versus percentage inhibition curves by fitting to a four parameter logistic curve.
# [2] = molecular target: T2, CDK3/cyclin E1 (Homo sapiens, UniProt Q00526); experiment: Carna IC50 determination; type: biochemical; conditions: around Km [ATP]
# T2 construct: purchased Carna Biosciences
# Protocol: as §1
# [3] = molecular target: T3, CDK5/p25 (Homo sapiens, UniProt Q00535); experiment: Carna IC50 determination; type: biochemical; conditions: around Km [ATP]
# T3 construct: purchased Carna Biosciences
# Protocol: as §1
# [4] = molecular target: T4, MET[Y1235D] (Homo sapiens, UniProt P08581, Y1235D); experiment: Carna kinase panel screen; type: biochemical; conditions: read-out: % Inhibition ± SD
# T4 construct: purchased Carna Biosciences
# Protocol: as §1
# [5] = molecular target: T5, MAP2K6 (Homo sapiens, UniProt P52564); experiment: Carna kinase panel screen; type: biochemical; conditions: read-out: % Inhibition ± SD
# T5 construct: purchased Carna Biosciences
# T5 sequence (P52564 whole entry): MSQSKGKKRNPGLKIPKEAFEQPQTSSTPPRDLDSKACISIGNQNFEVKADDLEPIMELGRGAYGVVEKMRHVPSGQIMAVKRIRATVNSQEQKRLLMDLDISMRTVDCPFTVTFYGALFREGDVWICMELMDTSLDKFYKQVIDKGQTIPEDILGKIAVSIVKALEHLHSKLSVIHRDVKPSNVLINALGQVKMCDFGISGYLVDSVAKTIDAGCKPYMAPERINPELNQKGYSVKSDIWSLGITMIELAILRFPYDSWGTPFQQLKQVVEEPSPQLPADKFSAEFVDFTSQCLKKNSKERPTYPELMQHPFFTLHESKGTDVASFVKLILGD
# Protocol: as §1
# [6] = molecular target: T6, FMS (Homo sapiens, UniProt P07333); experiment: Carna kinase panel screen; type: biochemical; conditions: read-out: % Inhibition ± SD
# T6 construct: purchased Carna Biosciences
# Protocol: as §1
# [7] = molecular target: T7, RSK2 (Homo sapiens, UniProt P51812); experiment: Carna kinase panel screen; type: biochemical; conditions: read-out: % Inhibition ± SD
# T7 construct: purchased Carna Biosciences
# T7 sequence (P51812 whole entry): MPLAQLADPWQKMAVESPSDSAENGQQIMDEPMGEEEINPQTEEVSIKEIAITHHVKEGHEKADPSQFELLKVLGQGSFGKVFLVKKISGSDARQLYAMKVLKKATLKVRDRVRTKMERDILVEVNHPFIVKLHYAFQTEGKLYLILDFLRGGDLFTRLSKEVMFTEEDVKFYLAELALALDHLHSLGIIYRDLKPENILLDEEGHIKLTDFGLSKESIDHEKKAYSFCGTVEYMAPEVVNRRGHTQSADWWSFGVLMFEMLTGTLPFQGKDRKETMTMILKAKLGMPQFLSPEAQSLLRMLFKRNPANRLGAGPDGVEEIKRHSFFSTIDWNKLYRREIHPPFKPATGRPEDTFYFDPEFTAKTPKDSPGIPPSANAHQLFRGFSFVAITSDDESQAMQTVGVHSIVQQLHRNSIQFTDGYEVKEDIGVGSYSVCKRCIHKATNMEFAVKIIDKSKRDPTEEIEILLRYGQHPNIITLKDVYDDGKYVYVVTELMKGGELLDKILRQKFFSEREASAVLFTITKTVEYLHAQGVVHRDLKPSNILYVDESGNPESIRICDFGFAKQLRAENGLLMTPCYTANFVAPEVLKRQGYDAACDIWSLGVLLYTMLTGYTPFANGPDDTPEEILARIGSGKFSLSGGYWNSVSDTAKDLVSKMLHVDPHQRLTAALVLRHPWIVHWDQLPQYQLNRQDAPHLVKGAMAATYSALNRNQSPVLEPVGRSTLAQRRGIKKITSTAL
# Protocol: as §1
# [8] = molecular target: T8, CDK5 (Homo sapiens, UniProt Q00535); experiment: Carna kinase panel screen; type: biochemical; conditions: read-out: % Inhibition ± SD
# T8 construct: purchased Carna Biosciences
# Protocol: as §1
# [9] = molecular target: T9, BRAF (Homo sapiens, UniProt P15056); experiment: Carna kinase panel screen; type: biochemical; conditions: read-out: % Inhibition ± SD
# T9 construct: purchased Carna Biosciences
# Protocol: as §1
# [10] = molecular target: T10, EphA8 (Homo sapiens, UniProt P29322); experiment: Carna kinase panel screen; type: biochemical; conditions: read-out: % Inhibition ± SD
# T10 construct: purchased Carna Biosciences
# T10 sequence (P29322 28-1005): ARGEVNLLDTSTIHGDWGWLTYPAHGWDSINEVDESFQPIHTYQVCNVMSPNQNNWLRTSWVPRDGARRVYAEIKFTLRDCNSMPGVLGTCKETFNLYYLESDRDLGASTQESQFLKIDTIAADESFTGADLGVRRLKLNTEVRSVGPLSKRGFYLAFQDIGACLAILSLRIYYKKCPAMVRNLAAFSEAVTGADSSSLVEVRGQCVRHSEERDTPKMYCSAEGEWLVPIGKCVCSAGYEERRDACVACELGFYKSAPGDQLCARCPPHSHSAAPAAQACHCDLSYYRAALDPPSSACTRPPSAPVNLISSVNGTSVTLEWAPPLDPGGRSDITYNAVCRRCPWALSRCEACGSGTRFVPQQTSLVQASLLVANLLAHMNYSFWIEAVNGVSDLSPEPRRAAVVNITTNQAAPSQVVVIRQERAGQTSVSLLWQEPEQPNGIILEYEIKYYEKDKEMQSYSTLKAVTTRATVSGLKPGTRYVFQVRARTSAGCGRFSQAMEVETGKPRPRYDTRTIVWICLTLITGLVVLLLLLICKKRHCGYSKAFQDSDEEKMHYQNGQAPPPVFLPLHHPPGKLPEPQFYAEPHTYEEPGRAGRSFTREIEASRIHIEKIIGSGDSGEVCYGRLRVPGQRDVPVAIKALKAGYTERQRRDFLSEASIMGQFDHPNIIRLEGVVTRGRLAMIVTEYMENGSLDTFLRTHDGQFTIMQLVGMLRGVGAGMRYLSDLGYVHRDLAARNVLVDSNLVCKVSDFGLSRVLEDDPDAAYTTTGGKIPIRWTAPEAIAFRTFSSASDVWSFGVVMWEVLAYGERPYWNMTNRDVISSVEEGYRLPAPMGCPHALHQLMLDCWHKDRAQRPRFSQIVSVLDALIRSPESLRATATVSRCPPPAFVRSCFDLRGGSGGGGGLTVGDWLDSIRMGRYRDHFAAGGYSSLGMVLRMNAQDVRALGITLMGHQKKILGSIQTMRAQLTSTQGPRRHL
# Protocol: as §1
# [11] = molecular target: T11, LYNb (Homo sapiens, UniProt P07948); experiment: Carna kinase panel screen; type: biochemical; conditions: read-out: % Inhibition ± SD
# T11 construct: purchased Carna Biosciences
# T11 sequence (P07948 1-491 isoform P07948-2): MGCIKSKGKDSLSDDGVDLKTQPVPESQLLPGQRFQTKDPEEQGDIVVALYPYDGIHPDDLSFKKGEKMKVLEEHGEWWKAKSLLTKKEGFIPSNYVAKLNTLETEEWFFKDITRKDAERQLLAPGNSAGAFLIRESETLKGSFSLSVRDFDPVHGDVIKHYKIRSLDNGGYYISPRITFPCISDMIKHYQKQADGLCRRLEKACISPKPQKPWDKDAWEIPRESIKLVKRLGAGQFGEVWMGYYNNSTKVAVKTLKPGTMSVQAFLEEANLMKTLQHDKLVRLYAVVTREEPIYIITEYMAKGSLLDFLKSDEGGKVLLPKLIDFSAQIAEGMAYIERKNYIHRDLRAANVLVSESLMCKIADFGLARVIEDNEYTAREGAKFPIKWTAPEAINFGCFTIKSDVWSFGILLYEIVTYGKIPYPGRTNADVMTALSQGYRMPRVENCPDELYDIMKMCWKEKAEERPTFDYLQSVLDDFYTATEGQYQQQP
# Protocol: as §1
# [12] = molecular target: T12, NEK6 (Homo sapiens, UniProt Q9HC98); experiment: Carna kinase panel screen; type: biochemical; conditions: read-out: % Inhibition ± SD
# T12 construct: purchased Carna Biosciences
# Protocol: as §1
# [13] = molecular target: T13, FGFR1 (Homo sapiens, UniProt P11362); experiment: Carna kinase panel screen; type: biochemical; conditions: read-out: % Inhibition ± SD
# T13 construct: purchased Carna Biosciences
# Protocol: as §1
# [14] = molecular target: T14, CHK2 (Homo sapiens, UniProt O96017); experiment: Carna kinase panel screen; type: biochemical; conditions: read-out: % Inhibition ± SD
# T14 construct: purchased Carna Biosciences
# Protocol: as §1
# [15] = molecular target: T15, MAP2K4 (Homo sapiens, UniProt P45985); experiment: Carna kinase panel screen; type: biochemical; conditions: read-out: % Inhibition ± SD
# T15 construct: purchased Carna Biosciences
# Protocol: as §1
# [16] = molecular target: T16, PAK6 (Homo sapiens, UniProt Q9NQU5); experiment: Carna kinase panel screen; type: biochemical; conditions: read-out: % Inhibition ± SD
# T16 construct: purchased Carna Biosciences
# Protocol: as §1
# [17] = molecular target: T17, ROCK1 (Homo sapiens, UniProt Q13464); experiment: Carna kinase panel screen; type: biochemical; conditions: read-out: % Inhibition ± SD
# T17 construct: purchased Carna Biosciences
# T17 sequence (Q13464 whole entry): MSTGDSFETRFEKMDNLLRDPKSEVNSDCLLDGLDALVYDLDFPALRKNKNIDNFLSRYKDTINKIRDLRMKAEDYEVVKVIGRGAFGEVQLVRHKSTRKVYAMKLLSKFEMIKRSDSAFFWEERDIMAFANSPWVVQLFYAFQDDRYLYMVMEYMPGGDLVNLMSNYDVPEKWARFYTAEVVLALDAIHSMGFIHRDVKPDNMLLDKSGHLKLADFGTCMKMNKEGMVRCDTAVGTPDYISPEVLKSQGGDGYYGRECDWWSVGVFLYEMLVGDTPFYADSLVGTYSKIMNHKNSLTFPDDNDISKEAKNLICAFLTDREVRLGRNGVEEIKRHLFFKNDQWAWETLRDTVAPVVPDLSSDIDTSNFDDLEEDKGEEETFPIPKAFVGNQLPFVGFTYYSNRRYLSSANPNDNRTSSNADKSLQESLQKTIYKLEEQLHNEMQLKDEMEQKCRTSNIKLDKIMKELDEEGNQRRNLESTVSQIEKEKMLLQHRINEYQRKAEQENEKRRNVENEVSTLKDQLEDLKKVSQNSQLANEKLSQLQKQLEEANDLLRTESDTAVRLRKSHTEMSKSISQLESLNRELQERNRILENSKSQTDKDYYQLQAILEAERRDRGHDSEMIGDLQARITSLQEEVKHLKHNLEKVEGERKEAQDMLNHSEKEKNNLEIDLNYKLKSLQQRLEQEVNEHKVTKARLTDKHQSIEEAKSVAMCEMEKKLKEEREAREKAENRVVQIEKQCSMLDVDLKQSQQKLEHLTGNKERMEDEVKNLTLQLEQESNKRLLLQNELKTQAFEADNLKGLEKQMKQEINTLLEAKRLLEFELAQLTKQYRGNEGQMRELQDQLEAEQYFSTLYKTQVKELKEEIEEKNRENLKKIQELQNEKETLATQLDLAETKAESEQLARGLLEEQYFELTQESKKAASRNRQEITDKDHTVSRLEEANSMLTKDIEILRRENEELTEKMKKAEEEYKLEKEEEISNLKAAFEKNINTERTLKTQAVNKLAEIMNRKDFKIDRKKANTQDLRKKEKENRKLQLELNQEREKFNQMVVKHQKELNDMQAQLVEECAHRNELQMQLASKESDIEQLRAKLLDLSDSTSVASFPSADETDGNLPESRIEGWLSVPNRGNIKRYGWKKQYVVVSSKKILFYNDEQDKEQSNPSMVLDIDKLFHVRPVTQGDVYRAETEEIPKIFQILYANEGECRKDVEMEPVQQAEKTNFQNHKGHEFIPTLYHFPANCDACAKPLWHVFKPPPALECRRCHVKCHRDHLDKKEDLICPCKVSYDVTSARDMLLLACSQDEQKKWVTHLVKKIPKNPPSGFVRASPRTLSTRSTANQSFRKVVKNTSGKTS
# Protocol: as §1
# [18] = molecular target: T18, FLT3 (Homo sapiens, UniProt P36888); experiment: Carna kinase panel screen; type: biochemical; conditions: read-out: % Inhibition ± SD
# T18 construct: purchased Carna Biosciences
# Protocol: as §1
# [19] = molecular target: T19, CDK7/cyclin H1/MAT1 (Homo sapiens, UniProt P50613); experiment: Kinase assay with recombinant CDK/cyclins (Cyclacel); type: biochemical
# T19 construct: purchased Carna Biosciences
# T19 sequence (P50613 whole entry): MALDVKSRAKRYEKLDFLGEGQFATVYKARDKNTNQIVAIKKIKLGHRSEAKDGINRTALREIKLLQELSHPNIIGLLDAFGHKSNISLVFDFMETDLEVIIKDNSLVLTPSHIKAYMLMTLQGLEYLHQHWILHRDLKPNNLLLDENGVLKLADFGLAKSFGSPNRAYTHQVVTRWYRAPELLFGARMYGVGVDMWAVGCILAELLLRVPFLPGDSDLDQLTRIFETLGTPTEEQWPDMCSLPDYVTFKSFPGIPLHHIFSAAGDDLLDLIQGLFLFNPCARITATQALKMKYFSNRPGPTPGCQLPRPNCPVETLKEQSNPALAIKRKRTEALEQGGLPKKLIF
# T19 sequence (P51946 whole entry partner): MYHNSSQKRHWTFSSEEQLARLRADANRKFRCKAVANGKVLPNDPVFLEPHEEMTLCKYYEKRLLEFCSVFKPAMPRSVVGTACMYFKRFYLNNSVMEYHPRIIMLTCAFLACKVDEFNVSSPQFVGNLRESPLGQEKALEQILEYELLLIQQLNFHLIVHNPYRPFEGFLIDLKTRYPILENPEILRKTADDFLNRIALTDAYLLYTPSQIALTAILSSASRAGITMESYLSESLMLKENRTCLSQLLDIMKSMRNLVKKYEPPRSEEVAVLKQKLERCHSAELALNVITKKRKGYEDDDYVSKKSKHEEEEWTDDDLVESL
# T19 sequence (P51948 whole entry partner): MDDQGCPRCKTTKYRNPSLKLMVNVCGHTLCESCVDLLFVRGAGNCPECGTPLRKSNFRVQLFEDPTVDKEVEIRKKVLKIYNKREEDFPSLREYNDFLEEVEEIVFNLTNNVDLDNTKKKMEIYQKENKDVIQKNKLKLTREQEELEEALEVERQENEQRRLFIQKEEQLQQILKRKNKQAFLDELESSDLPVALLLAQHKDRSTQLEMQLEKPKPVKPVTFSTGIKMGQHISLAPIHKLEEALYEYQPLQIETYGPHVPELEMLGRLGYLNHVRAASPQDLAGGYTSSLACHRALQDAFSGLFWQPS
# Protocol: (§2) Kinase assays for CDK2, CDK4, CDK7 and CDK9 were carried out as described previously using recombinant CDK/cyclins generated at Cyclacel Ltd, Dundee, UK [29, 34, 35].
# [20] = molecular target: T20, CDK4/cyclin D3 (Homo sapiens, UniProt P11802); experiment: as above; type: biochemical
# T20 construct: made in house
# Protocol: as §2
# [21] = molecular target: T21, CDK2/cyclin E (Homo sapiens, UniProt P24941); experiment: as above; type: biochemical
# T21 construct: made in house
# Protocol: as §2
# [22] = tested on: MDA-MB-468; experiment: Resazurin reduction cell viability assay; type: cell-based; conditions: Homo sapiens
# Protocol: (§3) Solid tumor cell lines were seeded in 100 μl medium into 96-well plates at an appropriate cell number determined by a cell dilution assay (Cal51–2000 cells/well; Colo205, MCF10A and 184A1–3000 cells/well and MDA-MB-468, HCC1954–4000 cells/well). AML suspension cells were seeded in 96-well plates at approximately 3000 cells per well. Cells were incubated overnight at 37°C, 5% CO2. The following day, 100 μl fresh medium containing increasing concentrations of appropriate compound was added and the cells were incubated for up to 72 h at 37°C, 5% CO2. For pulse treatment of solid (adherent) tumor cell lines, medium was aspirated and replaced with fresh drug-free medium. For pulse treatment of suspension lines, plates were centrifuged at 478 xg for 5 min at the end of the incubation period with compound, medium containing compound was carefully aspirated and replaced with fresh compound-free medium. A total of 72 h after the start of treatment, 20 μl of a 10X stock of resazurin sodium salt (Sigma-Aldrich, Dorset, UK) prepared in medium was added to the cells and incubated for up to 3 h. […] was measured on the Wallac Victor plate reader (Cambridge, UK) at 544–595 nm. IC50/70/90 calculations were determined in XLFit.
# [23] = tested on: Kasumi-1; experiment: Resazurin reduction cell viability assay; type: cell-based; conditions: Homo sapiens
# Protocol: as §3
# [24] = tested on: HCC1954; experiment: Resazurin reduction cell viability assay; type: cell-based; conditions: Homo sapiens
# Protocol: as §3
# [25] = tested on: HL60; experiment: Resazurin reduction cell viability assay; type: cell-based; conditions: Homo sapiens
# Protocol: as §3
# [26] = tested on: Cal51; experiment: Resazurin reduction cell viability assay; type: cell-based; conditions: Homo sapiens
# Protocol: as §3
# [27] = tested on: Nomo-1; experiment: Resazurin reduction cell viability assay; type: cell-based; conditions: Homo sapiens
# Protocol: as §3
# [28] = tested on: EOL-1; experiment: Resazurin reduction cell viability assay; type: cell-based; conditions: Homo sapiens
# Protocol: as §3
# [29] = tested on: ML-2; experiment: Resazurin reduction cell viability assay; type: cell-based; conditions: Homo sapiens
# Protocol: as §3
# [30] = tested on: panel of 256 kinases; experiment: Carna 256-kinase selectivity panel, overall; type: biochemical; conditions: 1 μM
# Protocol: as §1
# [31] = 72 h continuous, read-out: 72 h continuous IC50 ± SD
# [32] = read-out: 6 h pulse IC50 ± SD, 6 h pulse then 66 h release
compound,measurement,setting,value
"CC[C@H](Nc1nc(NCc2cnc(C)cc2C)c2ncn(C(C)C)c2n1)[C@@H](C)O [Fadraciclib, 2-pentanol, 3-[[6-[[(4,6-dimethyl-3-pyridinyl)methyl]amino]-9-(1-methylethyl)-9Hpurin-2-yl]amino]-, (2R,3S)]",IC50,[1],252 ± 8 nM
same,IC50,[2],29 nM and 28.9 nM
same,IC50,[3],20.5 ± 1 nM
same,inhibition at 1 µM,[4],2.4 ± 0.1%
same,inhibition at 1 µM,[5],0.7%
same,inhibition at 1 µM,[6],-6.3 ± 0.1%
same,inhibition at 1 µM,[7],5.6 ± 0.1%
same,inhibition at 1 µM,[8],98.1 ± 4%
same,inhibition at 1 µM,[9],-8.4 ± 1%
same,inhibition at 1 µM,[10],4.2 ± 0.2%
same,inhibition at 1 µM,[11],-8.7 ± 0.1%
same,inhibition at 1 µM,[12],-16.6 ± 0.5%
same,inhibition at 1 µM,[13],7.8%
same,inhibition at 1 µM,[14],-7.6 ± 0.1%
same,inhibition at 1 µM,[15],-2.7 ± 0.1%
same,inhibition at 1 µM,[16],-5.4%
same,inhibition at 1 µM,[17],-1.3%
same,inhibition at 1 µM,[18],-8.7 ± 0.1%
same,IC50,[19],730 ± 160 nM
same,IC50,[20],> 10000 nM
same,IC50,[21],20 ± 1 nM
same,IC50,"[22]; read-out: 8 h pulse IC50 ± SD, MDA-MB-468 (TNBC), 8 h pulse, read at 72 h",990 ± 340 nM
same,IC50,"[22]; MDA-MB-468, continuous 72 h, read-out: continuous IC50 ± SD",380 ± 170 nM
same,IC90,[23]; 6 h pulse then 66 h release,570 nM
same,IC50,[23]; [31],230 ± 40 nM
same,IC50,[23]; [32],320 ± 50 nM
same,IC50,"[24]; read-out: 8 h pulse IC50 ± SD, HCC1954 (HER2 amplified), 8 h pulse, read at 72 h",480 ± 50 nM
same,IC50,"[24]; HCC1954, continuous 72 h, read-out: continuous IC50 ± SD",400 ± 30 nM
same,IC90,"[25]; HL-60, 6 h pulse then 66 h release",1600 nM
same,IC50,"[25]; HL-60, 72 h continuous, read-out: 72 h continuous IC50 ± SD",440 ± 70 nM
same,IC50,"[25]; HL-60, read-out: 6 h pulse IC50 ± SD, 6 h pulse then 66 h release",790 ± 140 nM
same,IC50,"[26]; CAL-51, read-out: 8 h pulse IC50 ± SD, Cal51 (TNBC), 8 h pulse, read at 72 h",680 ± 200 nM
same,IC50,"[26]; CAL-51, Cal51, continuous 72 h, read-out: continuous IC50 ± SD",230 ± 40 nM
same,IC90,[27]; 6 h pulse then 66 h release,1800 nM
same,IC50,[27]; [31],290 ± 50 nM
same,IC50,[27]; [32],660 ± 110 nM
same,IC90,"[28]; EOL1, 6 h pulse then 66 h release",560 nM
same,IC50,"[28]; EOL1, 72 h continuous, read-out: 72 h continuous IC50 ± SD",370 ± 50 nM
same,IC50,"[28]; EOL1, read-out: 6 h pulse IC50 ± SD, 6 h pulse then 66 h release",350 ± 50 nM
same,IC90,[29]; 6 h pulse then 66 h release,590 nM
same,IC50,[29]; [31],190 ± 50 nM
same,IC50,[29]; [32],330 ± 120 nM
same,number of kinases inhibited >50%,[30],9
